Target: human mTOR enzyme (Homo sapiens, UniProt P42345)
Experiment: mTOR Kinase Assay
Assay type: biochemical
Conditions: 5 μM ATP, 0.1 μM GST-S6K, rated A, B or C
Description: The mTOR assay buffer contained 10 mM hepes (pH 7.4), 50 mM NaCl, 100 μg/ml BSA, 50 mM β-glycerophosphate, 10 mM MnCl2 and 0.5 mM DTT. 20 ng of human mTOR enzyme was preincubated with the compound for 10 minutes. 5 μM ATP and 0.1 μM GST-S6K was added. The reaction was incubated for one hour at 30° C. Anti phospho p70-S6K (about 1.7 ng/well) and anti GST-XL665 (1:1 Ratio with the substrate GST-56K) were added after incubating. The plates were read at least 2 hours after adding the anti phospho p70-S6K and the anti GST-XL665.
IC50 DETERMINATIONS: Dose-response curves were plotted from the inhibition data generated, each in duplicate, from 8 point serial dilutions of inhibitory compounds. Concentration of compound was plotted against % kinase activity, calculated by CPM of treated samples divided by CPM of untreated samples. To generate IC50 values, the dose-response curves were then fitted to a standard sigmoidal curve and IC50 values were derived by nonlinear regression analysis.

Row | SMILES | IC50 [nM]
1 | O=C(O)CC1CCC(c2nc3c(-c4ccc(-c5ccccc5)nc4)cnn3c3[nH]ccc23)CC1 (mixture of isomers) [Compound 29] | < 1
2 | Cc1n[nH]c2c1c(C1CCS(=O)(=O)CC1)nc1c(-c3cnc4ccccc4c3)cnn12 [Compound 1, 3-(Quinolin-3-yl)-5-(1,1-dioxo-tetrahydro-2H-thiopyran-4-yl)-6-methyl-dipyrazolo[1,5-a:4′,3′-e]pyrimidine] | 10 to 100
3 | Cc1n[nH]c2c1c(CC1CCC(C)(C(=O)O)CC1)nc1c(-c3ccc(-c4cccnc4)nc3)cnn12 (stereo not shown) [Compound 2] | 1 to 10
4 | Cc1n[nH]c2c1c(CC1CCC(C)(C(=O)O)CC1)nc1c(-c3ccc(-c4ccccc4)nc3)cnn12 (stereo not shown) [Compound 3, 1-methyl-4-((3-methyl-6-(6-phenylpyridin-3-yl)-1H-dipyrazolo[1,5-a:4′,3′-e]pyrimidin-4-yl)methyl)cyclohexanecarboxylic acid] | 1 to 10
5 | Cc1n[nH]c2c1c(CC1CCC(C)(C(=O)O)CC1)nc1c(-c3ccc(-c4cnn(C)c4)nc3)cnn12 (stereo not shown) [Compound 4] | 1 to 10
6 | Cc1n[nH]c2c1c(CC1CCC(C(=O)O)CC1)nc1c(-c3ccc(-c4ccccc4)nc3)cnn12 (stereo not shown) [Compound 5, 4-((3-methyl-6-(6-phenylpyridin-3-yl)-1H-dipyrazolo[1,5-a:4′,3′-e]pyrimidin-4-yl)methyl)cyclohexanecarboxylic acid] | 1 to 10
7 | Cc1n[nH]c2c1c(CC1CCC(C(=O)O)CC1)nc1c(-c3ccc(-c4cnn(C)c4)nc3)cnn12 (stereo not shown) [Compound 6, 4-((3-methyl-6-(6-(1-methyl-1H-pyrazol-4-yl)pyridin-3-yl)-1H-dipyrazolo[1,5-a:4′,3′-e]pyrimidin-4-yl)methyl)cyclohexanecarboxylic acid] | 1 to 10
8 | Cc1n[nH]c2c1c([C@H]1CC[C@H](C(=O)O)CC1)nc1c(-c3cnc4ccccc4c3)cnn12 [Compound 7] | 10 to 100
9 | Cc1n[nH]c2c1c([C@H]1CC[C@H](C(=O)O)CC1)nc1c(-c3ccc(-c4ccccc4)nc3)cnn12 [Compound 8, (1R,4R)-4-(3-methyl-6-(6-phenylpyridin-3-yl)-1H-dipyrazolo[1,5-a:4′,3′-e]pyrimidin-4-yl)cyclohexanecarboxylic acid] | < 1
10 | O=S1(=O)CCC(c2nc3c(-c4ccc(-c5ccccc5)nc4)cnn3c3[nH]ccc23)CC1 [Compound 9] | 1 to 10
11 | O=S1(=O)CCC(c2nc3c(-c4ccc(-c5cccnc5)nc4)cnn3c3[nH]ncc23)CC1 [Compound 10] | 10 to 100
12 | O=S1(=O)CCC(c2nc3c(-c4cnc5ccccc5c4)cnn3c3[nH]ccc23)CC1 [Compound 11] | 1 to 10
13 | O=S1(=O)CCC(c2nc3c(-c4cnc5ccc(F)cc5c4)cnn3c3[nH]ccc23)CC1 [Compound 12] | 1 to 10
14 | O=S1(=O)CCN(c2nc3c(-c4cnc5ccccc5c4)cnn3c3[nH]ccc23)CC1 [Compound 13] | 1 to 10
15 | O=S1(=O)CCC(c2nc3c(-c4ccc(-c5ccccc5)nc4)cnn3c3[nH]ncc23)CC1 [Compound 15] | 1 to 10
16 | O=S1(=O)CCC(c2nc3c(-c4cnc5ccc(F)cc5c4)cnn3c3[nH]ncc23)CC1 [Compound 16] | 10 to 100
17 | CCc1n[nH]c2c1c(N1CCS(=O)(=O)CC1)nc1c(-c3cnc4ccccc4c3)cnn12 [Compound 17] | 1 to 10

Row | SMILES | IC50 [nM]
18 | Cc1n[nH]c2c1c(C1CCS(=O)(=O)CC1)nc1c(-c3cnc4ccccc4c3)cnn12 [Compound 18] | 1 to 10
19 | Cc1n[nH]c2c1c(C1CCS(=O)(=O)CC1)nc1c(-c3ccc(-c4cccnc4)nc3)cnn12 [Compound 19] | 1 to 10
20 | Cc1n[nH]c2c1c(C1CCS(=O)(=O)CC1)nc1c(-c3ccc(-c4ccccc4)nc3)cnn12 [Compound 20] | 1 to 10
21 | Cc1n[nH]c2c1c(C1CCS(=O)(=O)CC1)nc1c(-c3cnc4ccc(F)cc4c3)cnn12 [Compound 21] | 1 to 10
22 | Cc1n[nH]c2c1c(C1CCC(CC(=O)O)CC1)nc1c(-c3ccc(-c4ccccc4)nc3)cnn12 (stereo not shown) [Compound 22, 2-(4-(3-methyl-6-(6-phenylpyridin-3-yl)-1H-dipyrazolo[1,5-a:4′,3′-e]pyrimidin-4-yl)cyclohexyl)acetic acid] | < 1
23 | O=C(O)[C@H]1CC[C@H](c2nc3c(-c4ccc(-c5ccccc5)nc4)cnn3c3[nH]ccc32)CC1 [Compound 23, (trans)-4-(3-(6-phenylpyridin-3-yl)-8H-pyrazolo[1,5-a]pyrrolo[3,2-e]pyrimidin-5-yl)cyclohexanecarboxylic acid] | 1 to 10
24 | O=C([C@H](O)CO)N1CCC(c2nc3c(-c4ccc(-c5ccccc5)nc4)cnn3c3[nH]ccc23)CC1 [Compound 24, (R)-2,3-dihydroxy-1-(4-(3-(6-phenylpyridin-3-yl)-8H-pyrazolo[1,5-a]pyrrolo[3,2-e]pyrimidin-5-yl)piperidin-1-yl)propan-1-one] | 1 to 10
25 | C[C@@H](O)C(=O)N1CCC(c2nc3c(-c4ccc(-c5ccccc5)nc4)cnn3c3[nH]ccc23)CC1 [Compound 25, (R)-2-hydroxy-1-(4-(3-(6-phenylpyridin-3-yl)-8H-pyrazolo[1,5-a]pyrrolo[3,2-e]pyrimidin-5-yl)piperidin-1-yl)propan-1-one] | 1 to 10
26 | Cc1n[nH]c2c1c(CNC1CCOCC1)nc1c(-c3cnc4ccccc4c3)cnn12 [Compound 26, N-((3-methyl-6-(quinolin-3-yl)-1H-dipyrazolo[1,5-a:4′,3′-e]pyrimidin-4-yl)methyl)tetrahydro-2H-pyran-4-amine] | 1 to 10
27 | CS(=O)(=O)N1CCC(c2nc3c(-c4ccc(-c5ccccc5)nc4)cnn3c3[nH]ccc23)C1 (stereo not shown) [Compound 27, 5-(1-(methylsulfonyl)pyrrolidin-3-yl)-3-(6-phenylpyridin-3-yl)-8H-pyrazolo[1,5-a]pyrrolo[3,2-e]pyrimidine] | 1 to 10
28 | CC1(C(=O)O)CC=C(c2nc3c(-c4ccc(-c5ccccc5)nc4)cnn3c3[nH]ccc23)CC1 (stereo not shown) [Compound 28] | 1 to 10
29 | Cc1n[nH]c2c1c(C1CCN(C(=O)[C@@H](C)O)CC1)nc1c(-c3ccc(-c4ccccc4)nc3)cnn12 [Compound 30, (R)-2-hydroxy-1-(4-(3-methyl-6-(6-phenylpyridin-3-yl)-1H-dipyrazolo[1,5-a:4′,3′-e]pyrimidin-4-yl)piperidin-1-yl)propan-1-one] | 1 to 10
30 | O=S1(=O)CCC(c2nc3c(-c4cnc5ccc(F)cc5c4)cnn3c3[nH]cc(Cl)c23)CC1 [Compound 31] | 1 to 10
31 | O=S1(=O)CCC(c2nc3c(-c4ccc(-c5ccccc5)nc4)cnn3c3[nH]cc(Cl)c23)CC1 [Compound 32] | 1 to 10
32 | C[C@@H](O)C(=O)N1CCC(Cc2nc3c(-c4ccc(-c5ccccc5)nc4)cnn3c3[nH]ccc23)CC1 [Compound 33, (R)-2-hydroxy-1-(4-((3-(6-phenylpyridin-3-yl)-8H-pyrazolo[1,5-a]pyrrolo[3,2-e]pyrimidin-5-yl)methyl)piperidin-1-yl)propan-1-one] | 10 to 100
33 | C[C@@H](O)C(=O)N1CCC(c2nc3c(-c4ccc(-c5ccccc5)nc4)cnn3c3[nH]cc(Cl)c23)CC1 [Compound 34, (R)-1-(4-(6-chloro-3-(6-phenylpyridin-3-yl)-8H-pyrazolo[1,5-a]pyrrolo[3,2-e]pyrimidin-5-yl)piperidin-1-yl)-2-hydroxypropan-1-one] | 1 to 10
34 | C[C@@H](O)C(=O)N1CCC(Oc2nc3c(-c4ccc(-c5ccccc5)nc4)cnn3c3[nH]ccc23)CC1 [Compound 35, (R)-2-hydroxy-1-(4-(3-(6-phenylpyridin-3-yl)-8H-pyrazolo[1,5-a]pyrrolo[3,2-e]pyrimidin-5-yloxy)piperidin-1-yl)propan-1-one] | 10 to 100

From patent publication US8609675B2, “Fused Tricyclic Compounds as novel mTOR inhibitors” (Merck Sharp & Dohme Corp., priority 2009, dated 2013)
